Reference: patent US9700609B2, “Compositions for treatment and/or prevention of autoimmune disorders” (University of Florida Research Foundation, Incorporated, priority 2013, dated 2017)

Legend:
[1] = tested on: CD11b+ and CD11c+ leukocytes (APC); assay: APC frequency and MHC expression by flow cytometry in splenocyte cultures with graded doses of bacteria and anti-CD3; type: cell-based, NOD and NOR mice
Procedure: FIG. 8. LjN6.2, but not LrTD1, increases APC activation in NOD mice. Spleenocytes derived from NOD or NOR mice, were cultured with graded doses of LjN6.2 or LrTD1 in the presence of anti-CD3. Following 48 hours incubation, samples were analyzed through flow cytometry for APC activation. A) Histograms showing changes in CD11b and CD11c frequencies upon treatment of NOD in vitro leukocyte cultures with LjN6.2 (red), LrTD1(black) or CD3 (shaded). B) Graphs showing percentage of CD11b^+ and CD11c^+ leukocytes in NOD and NOR cells cultures incubated with graded doses of bacteria as indicated. C) Graphs showing changes in MHC expression levels on CD11c^+ and CD11b^+ APC upon treatment with graded doses of LjN6.2 (shaded square) or LrTD1 (open square).
(§1) Whole lymphocytes or BMOC were incubated with 4 μg/mL anti-CD3, (LjN6.2) and/or L. reuteri TD1 (LrTD1) at various concentrations as indicated. At 48 hours, 100 μL of supernatant was removed from each well and replenished with fresh medium. Cytokine ELISAs were subsequently performed on harvested supernatants. ELISA kits were purchased from BD Bioscience: anti-IFNγ (555138; BD Biosciences, San Diego, Calif.), and anti-IL6 (555240). Capture mAb (555068) and detection mAb (555067) for IL17 were purchased from BD Biosciences. Cytokine standard for IL-17A was purchased from eBioscience (14-8171-80).
(§2) Single cell suspensions of pooled LN (axillary, inguinal, brachial, mesenteric, and superficial cervical), and spleen were stained with the following mAbs for flow-cytometric analysis: anti-CD4-Pacific Blue (RM4-5), anti-MHC I-FitC (KH95), anti-CD11c-PE (N418; eBioscience, San Diego, Calif.), anti-B220-APC (RA3-6B2, eBioscience), anti-CD11b-A700 (M1/70), anti-CD11b-FitC (M1/70, eBioscience), […] (N418, eBioscience), anti CD86-A700 (GL1), anti-CD80-PE (16-10A1), DEC 205-APC (205yekta) and anti-MHC II-FC (39-10-8) mAb. All flow cytometry antibodies were purchased from BD PharMingen unless otherwise stated. 50,000-100,000 live events were collected on a LSRII (BD PharMingen) and analyzed using FlowJo software (Tree Star, San Carlos, Calif.). The absolute numbers of cells recovered from various organs was determined by multiplying the total number of cells isolated from various tissues by the percentage of total cells bearing a lineage specific marker denoted by flow cytometry.

BBDP rats = settings: cited from earlier work; for Th17 bias: BBDP rat and NOD mouse (Lau et al. (2011)); for T1D resistance: oral transfer to BBDP rats (Valladares et al. (2010))
DEC205 on CD11c+ DC = assay: DEC205 expression on CD11c+ DC in splenocyte cultures, flow cytometry; type: cell-based, NOD and NOR mice; settings: both NOD and NOR CD11c+ DC, dose dependent
Procedure: FIG. 9. Enhanced DC maturation mediated by LjN6.2 surface antigens. Spleenocytes derived from NOD or NOR mice, were cultured with graded doses of LjN6.2 or LrTD1in the presence of anti-CD3, as in FIG. 4. Subsequent to incubation, samples were analyzed for expression of the endocytic marker, DEC 205. A) Overlay histograms showing changes in DEC205 frequency on CD11c^+ DC upon treatment of NOD cultures with varying doses of LjN6.2 and LrTD1. B) Graphical representations of DEC205 expression on CD11c^+ DC present within NOD and NOR cultures upon incubation with varying doses of LjN6.2 and LrTD1. […]
as §2, with “All flow cytometry antibodies were purchased from BD PharMingen unless otherwise stated.” left out, “The absolute numbers of cells recovered from various organs was determined by multiplying the total number of cells isolated from various tissues by the percentage of total cells bearing a lineage specific marker denoted by flow cytometry.” left out

BMDC = assay: IL6 production by BMDC incubated with LjN6.2 or lysed bacterial components, ELISA; type: cell-based, NOD mice; settings: NOD BMDC matured with GM-CSF
Procedure: FIG. 9. Enhanced DC maturation mediated by LjN6.2 surface antigens. Spleenocytes derived from NOD or NOR mice, were cultured with graded doses of LjN6.2 or LrTD1in the presence of anti-CD3, as in FIG. 4. Subsequent to incubation, samples were analyzed for expression of the endocytic marker, DEC 205. A) Overlay histograms showing changes in DEC205 frequency on CD11c^+ DC upon treatment of NOD cultures with varying doses of LjN6.2 and LrTD1. B) Graphical representations of DEC205 expression on CD11c^+ DC present within NOD and NOR cultures upon incubation with varying doses of LjN6.2 and LrTD1. C) Maturing DC (BMDC), derived from NOD mice were matured in the presence of GM-CSF, followed by incubation with LjN6.2 or beadbeater lysed LjN6.2 bacterial cellular components. Left, graph showing IL6 production by BMDC incubated with either intact LjN6.2, or fractional equivalents of nonviable lysed LjN6.2 components defined by ultracentrifugation as membrane (pellet components) or cytosolic (soluble) components. […]
Bacterial cells were incubated with 0.1 mm glass beads and homogenized through the use of a beadbeater (Qbiogene) according to manufacturers' instructions. […] Efficiency of bacterial disruption was assessed through the culture of bacterial lysates on agar plates under anaerobic conditions.

[2] = tested on: LN cells (CD11b+ leukocytes); assay: CD11b and CD40 expression in pooled LN cells cultured with bacteria, flow cytometry; type: cell-based, NOD mice; settings: NOD pooled LN cells, 48 hour incubation
Procedure: (§3) FIG. 12. LjN6.2 but not LrTD1 up-regulates expression of CD11b. LN cells (brachial, inguinal, cervical and mesenteric) were isolated from NOD mice and pooled, followed by culturing in the presence or absence of bacteria. After 48 hour incubation, supernatants were removed and cells were analyzed by flow cytometry. Please note that concentration 1 (Lj1 and Lr1) is 3 fold higher than concentration 2 (Lj2 and Lr2).
as §3, with “13. […]” for “12. LjN6.2 but not LrTD1 up-regulates expression of CD11b.”, “pooled” for “pooled,”, “culture” for “culturing”, “cytometry. CD11b^+ cells were first gated and then further analyzed for CD40 expression.” for “cytometry.”
Single cell suspensions of pooled LN (axillary, inguinal, brachial, mesenteric, and superficial cervical), and spleen were stained with the following mAbs for flow-cytometric analysis: anti-CD4-Pacific Blue (RM4-5), anti-MHC I-FitC (KH95), anti-CD11c-PE (N418; eBioscience, San Diego, Calif.), anti-B220-APC (RA3-6B2, eBioscience), anti-CD11b-A700 (M1/70), anti-CD11b-FitC (M1/70, eBioscience), […] (N418, eBioscience), anti CD86-A700 (GL1), anti-CD80-PE (16-10A1), DEC 205-APC (205yekta) and anti-MHC II-FC (39-10-8) mAb. […]

T lymphocytes = assay: IFNγ production and IFNγ+/IL17+ T lymphocytes after bacterial treatment; type: cell-based
Procedure: FIG. 14. L. johnsonii modulates adaptive immune response. […] Also, L. johnsonii increased the percentages of IFNγ^+ and IL17^+ T lymphocytes in a dose dependent manner.
as §1

NOD mice = assay: Systemic Th17 bias after oral feeding or pulsed DC vaccination; type: in vivo; settings: oral feeding
Description: In apparent contrast, T1D onset can also be inhibited through the generation of Foxp3^+ regulatory T cells which can be mediated by tolerogenic, immature DC. […] Therefore, restoration of DC function by oral administration of specific bacteria, or administration of a vaccine composed of gut flora modified DC, can be used to restore immune tolerance.

Row | Substance | modulation of MHC ([1]; CD11c+ and CD11b+ APC, in contrast to LjN6.2) | Th17 bias (BBDP rats) | T1D resistance (BBDP rats) | levels of MHC classes I and II on CD11c+ DC ([1]; NOD derived CD11c+ DC, dose dependent) | frequency of both CD11b+ and CD11c+ leukocytes ([1]; NOD derived primary cell cultures, graded doses, anti-CD3, 48 hours) | frequency of CD11b+ and CD11c+ leukocytes ([1]; NOR cultures, graded doses, anti-CD3, 48 hours) | MHCI and MHCII expression on CD11c+ DC ([1]; NOR derived CD11c+ DC) | CD11b+MHCIhi leukocytes ([1]; both NOD and NOR cultures) | frequency of CD11b+MHCIIhi leukocytes ([1]; both NOD and NOR cultures) | DEC205 expression on CD11c+ DC (DEC205 on CD11c+ DC) | IL6 production by BMDC (BMDC) | CD11b expression [2] | CD40 expression on CD11b+ leukocytes [2] | IFNγ production (T lymphocytes; compared with L. reuteri) | percentages of IFNγ+ and IL17+ T lymphocytes (T lymphocytes; dose dependent) | systemic Th17 bias (NOD mice)
1 | L. reuteri TD1 [LrTD1] | reduced, or negligible | nor mediated a Th17 bias | neither conferred T1D resistance | – | – | – | – | – | – | – | – | – | – | – | – | –
2 | Lactobacillus johnsonii N6.2 [LjN6.2] | – | APC dependent, Th17 bias observed | sufficient to confer T1D resistance | upregulated | consistently up-regulated | only moderately increased | failed to specifically increase | decrease | increase | down-regulation | copious amounts | up-regulates | up-regulated | more profoundly than L. reuteri | increased | sufficient to mediate a systemic Th17 bias
